Source: ChEMBL document CHEMBL5137088 (J Med Chem, 2022)

Experiments:
in vitro [1] = conditions: dog, MDCK cells
in vitro [2] = conditions: chicken, chick embryo fibroblast cells
Cytochrome P450 2C19 = Cytochrome P450 2C19 (Homo sapiens, UniProt P33261); type: ADME, microsomes, Liver, Microsome
in vitro [3] = conditions: human, human liver (fraction not stated)
[4] = Half-life in Sprague-Dawley rat at 20 mg/kg, po measured upto 12 hrs by LC-MS/MS analysis; type: ADME, organism-based; conditions: in vivo
in vitro [5] = conditions: human, liver microsomes
[6] = Acute toxicity in 12 hrs fasted Kunming mouse assessed as ruffled fur at 1000 mg/kg, po measured for 1 week; type: organism-based; conditions: in vivo, 168 h, time 1 weeks
[7] = Acute toxicity in 12 hrs fasted Kunming mouse assessed as animal death at 1000 mg/kg, po measured for 1 week; type: organism-based; conditions: in vivo, 168 h, time 1 weeks
Cytochrome P450 3A4 = Cytochrome P450 3A4 (Homo sapiens, UniProt P08684); type: ADME, microsomes, Liver, Microsome
Cytochrome P450 3A4, sequence (P08684 whole entry): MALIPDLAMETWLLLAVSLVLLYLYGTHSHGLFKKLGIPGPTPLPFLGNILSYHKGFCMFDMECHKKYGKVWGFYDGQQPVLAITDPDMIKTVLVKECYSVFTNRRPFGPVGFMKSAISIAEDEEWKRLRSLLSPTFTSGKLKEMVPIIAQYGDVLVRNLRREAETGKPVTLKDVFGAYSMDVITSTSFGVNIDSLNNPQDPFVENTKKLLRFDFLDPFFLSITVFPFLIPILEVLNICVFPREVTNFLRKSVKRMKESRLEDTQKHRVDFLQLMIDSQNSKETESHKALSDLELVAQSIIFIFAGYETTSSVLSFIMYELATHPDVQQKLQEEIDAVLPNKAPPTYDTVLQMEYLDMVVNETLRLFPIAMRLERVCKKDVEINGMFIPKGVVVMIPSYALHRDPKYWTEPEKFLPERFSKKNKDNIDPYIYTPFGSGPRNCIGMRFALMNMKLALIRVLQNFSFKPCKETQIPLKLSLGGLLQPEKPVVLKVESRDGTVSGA

[8] = Tmax in Sprague-Dawley rat at 2 mg/kg, iv measured upto 12 hrs by LC-MS/MS analysis; type: ADME, organism-based; conditions: in vivo
Cytochrome P450 2D6 = Cytochrome P450 2D6 (Homo sapiens, UniProt P10635)
Cytochrome P450 2D6, sequence (P10635 whole entry): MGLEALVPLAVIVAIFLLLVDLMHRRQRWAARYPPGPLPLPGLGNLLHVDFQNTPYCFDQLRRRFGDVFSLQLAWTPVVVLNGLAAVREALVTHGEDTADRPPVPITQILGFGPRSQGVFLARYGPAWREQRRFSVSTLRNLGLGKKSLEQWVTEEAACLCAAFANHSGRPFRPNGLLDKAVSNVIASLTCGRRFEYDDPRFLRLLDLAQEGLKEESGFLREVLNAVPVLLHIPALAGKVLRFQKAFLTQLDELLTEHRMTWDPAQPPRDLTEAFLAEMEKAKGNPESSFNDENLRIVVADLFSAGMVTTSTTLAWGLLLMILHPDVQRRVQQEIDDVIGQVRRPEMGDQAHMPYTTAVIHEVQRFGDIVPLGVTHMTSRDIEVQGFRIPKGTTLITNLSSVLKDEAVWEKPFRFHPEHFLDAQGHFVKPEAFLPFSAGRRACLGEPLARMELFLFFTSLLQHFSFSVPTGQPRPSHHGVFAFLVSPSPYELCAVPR

[9] = Subacute toxicity in 12 hrs fasted Kunming mouse assessed as poisoning symptom at 50 mg/kg, po administered once every two days for 2 weeks; type: organism-based; conditions: in vivo
[10] = Clearance in Sprague-Dawley rat at 2 mg/kg, iv measured upto 12 hrs by LC-MS/MS analysis; type: ADME, organism-based; conditions: in vivo
[11] = Subacute toxicity in 12 hrs fasted Kunming mouse assessed as increase in body weight at 50 mg/kg, po administered once every two days for 2 weeks relative to control; type: organism-based; conditions: in vivo
Cytochrome P450 1A2 = molecular target: T1, Cytochrome P450 1A2 (Homo sapiens, UniProt P05177)
T1 sequence (P05177 whole entry): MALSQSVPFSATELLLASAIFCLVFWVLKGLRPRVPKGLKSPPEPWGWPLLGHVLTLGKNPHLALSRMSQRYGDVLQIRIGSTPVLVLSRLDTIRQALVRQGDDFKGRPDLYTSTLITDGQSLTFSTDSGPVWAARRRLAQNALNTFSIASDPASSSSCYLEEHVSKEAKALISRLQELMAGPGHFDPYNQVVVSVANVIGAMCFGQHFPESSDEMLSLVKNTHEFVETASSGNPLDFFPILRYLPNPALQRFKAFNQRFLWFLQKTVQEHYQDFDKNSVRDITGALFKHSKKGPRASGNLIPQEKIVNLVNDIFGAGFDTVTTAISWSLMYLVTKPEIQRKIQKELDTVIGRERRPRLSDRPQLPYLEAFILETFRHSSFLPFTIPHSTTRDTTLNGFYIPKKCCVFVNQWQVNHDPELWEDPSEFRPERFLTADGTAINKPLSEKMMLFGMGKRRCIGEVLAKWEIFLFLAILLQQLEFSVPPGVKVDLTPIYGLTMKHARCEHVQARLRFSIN

[12] = Acute toxicity in 12 hrs fasted Kunming mouse assessed as lethargy at 1000 mg/kg, po measured for 1 week; type: organism-based; conditions: in vivo, 168 h, time 1 weeks
[13] = Cmax in Sprague-Dawley rat at 2 mg/kg, iv measured upto 12 hrs by LC-MS/MS analysis; type: ADME, organism-based; set-up: time < 12 hrs, dose 2 mg/kg, route iv; conditions: in vivo
[14] = Tmax in Sprague-Dawley rat at 20 mg/kg, po measured upto 12 hrs by LC-MS/MS analysis; type: ADME, organism-based; conditions: in vivo
[15] = Subacute toxicity in 12 hrs fasted Kunming mouse assessed as animal death at 50 mg/kg, po administered once every two days for 2 weeks; type: organism-based; conditions: in vivo
[16] = Volume of distribution at steady state in Sprague-Dawley rat at 2 mg/kg, iv measured upto 12 hrs by LC-MS/MS analysis; type: ADME, organism-based; conditions: in vivo, read-out: Vdss
[17] = Oral bioavailability in Sprague-Dawley rat at 20 mg/kg measured upto 12 hrs by LC-MS/MS analysis; type: ADME, organism-based; conditions: in vivo
[18] = Cmax in Sprague-Dawley rat at 20 mg/kg, po measured upto 12 hrs by LC-MS/MS analysis; type: ADME, organism-based; set-up: time < 12 hrs, dose 20 mg/kg, route po; conditions: in vivo
[19] = Acute toxicity in 12 hrs fasted Kunming mouse assessed as clonic convulsion at 1000 mg/kg, po measured for 1 week; type: organism-based; conditions: in vivo, 168 h, time 1 weeks
[20] = Subacute toxicity in 12 hrs fasted Kunming mouse assessed as animal death at 50 mg/kg, iv administered once every two days for 2 weeks; type: organism-based; conditions: in vivo
in vitro [21] = conditions: human, human liver (fraction not stated); remark: listed apart in the source
[22] = Subacute toxicity in 12 hrs fasted Kunming mouse assessed as side effect at 50 mg/kg, iv administered once every two days for 2 weeks; type: organism-based; conditions: in vivo
Cytochrome P450 2C9 = Cytochrome P450 2C9 (Homo sapiens, UniProt P11712); type: ADME, microsomes, Liver, Microsome
Cytochrome P450 2C9, sequence (P11712 whole entry): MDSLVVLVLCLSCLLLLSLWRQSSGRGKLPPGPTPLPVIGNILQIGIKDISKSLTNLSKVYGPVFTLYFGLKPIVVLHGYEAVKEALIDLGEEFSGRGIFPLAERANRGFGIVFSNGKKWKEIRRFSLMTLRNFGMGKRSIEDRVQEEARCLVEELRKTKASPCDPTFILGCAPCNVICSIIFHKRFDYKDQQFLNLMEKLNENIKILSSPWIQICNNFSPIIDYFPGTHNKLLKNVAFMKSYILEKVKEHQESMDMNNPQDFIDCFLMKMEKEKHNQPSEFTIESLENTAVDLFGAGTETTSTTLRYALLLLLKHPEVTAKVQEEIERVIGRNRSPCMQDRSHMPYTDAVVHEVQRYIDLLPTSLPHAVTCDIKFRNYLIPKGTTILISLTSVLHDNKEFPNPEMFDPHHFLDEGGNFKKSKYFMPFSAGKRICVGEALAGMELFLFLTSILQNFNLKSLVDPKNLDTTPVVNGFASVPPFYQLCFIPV

[23] = Half-life in Sprague-Dawley rat at 2 mg/kg, iv measured upto 12 hrs by LC-MS/MS analysis; type: ADME, organism-based; conditions: in vivo
in vitro [24] = conditions: human, Caco-2

Cytochrome P450 2C19, sequence (P33261 whole entry): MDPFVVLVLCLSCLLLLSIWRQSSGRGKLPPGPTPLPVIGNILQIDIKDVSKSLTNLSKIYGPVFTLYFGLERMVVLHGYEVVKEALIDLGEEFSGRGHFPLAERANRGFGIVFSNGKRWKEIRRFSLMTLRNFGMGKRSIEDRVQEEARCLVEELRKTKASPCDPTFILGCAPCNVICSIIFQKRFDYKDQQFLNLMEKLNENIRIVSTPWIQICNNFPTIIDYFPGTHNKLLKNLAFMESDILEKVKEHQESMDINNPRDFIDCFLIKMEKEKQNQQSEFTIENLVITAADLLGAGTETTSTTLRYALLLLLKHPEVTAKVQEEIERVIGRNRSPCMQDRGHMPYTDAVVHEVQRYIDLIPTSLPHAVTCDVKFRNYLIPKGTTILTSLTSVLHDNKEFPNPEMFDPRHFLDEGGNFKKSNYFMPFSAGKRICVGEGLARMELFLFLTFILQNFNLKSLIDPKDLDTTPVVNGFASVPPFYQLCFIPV

CCC(CC)O[C@@H]1C=C(C(=O)O)C[C@H](NCc2ccc(-c3cccs3)c(Cl)c2)[C@H]1NC(C)=O
CC50 at 48 h (in vitro [1]): > 250 µM | CC50 at 48 h (in vitro [2]): > 250 µM

CCC(CC)O[C@@H]1C=C(C(=O)O)C[C@H](NCc2ccc(-c3cccs3)cc2OC)[C@H]1NC(C)=O
IC50 (Cytochrome P450 2C19): 30.3 µM | CLint scaled at 2 h (in vitro [3]): 10.4 mL/min/kg | half-life [4]: 20.9 min | half-life at 2 h (in vitro [5]): 120 min | Activity [6]: Non-Toxic | Activity [7]: Non-Toxic | IC50 (Cytochrome P450 3A4): 87.6 µM | Tmax [8]: 4.98 min | IC50 (Cytochrome P450 2D6): > 100 µM | Activity [9]: Non-Toxic | clearance [10]: 17.7 mL/min/kg | CC50 at 48 h (in vitro [1]): > 250 µM | Activity [11]: Non-Toxic | CC50 at 48 h (in vitro [2]): > 250 µM | IC50 (Cytochrome P450 1A2): 20.7 µM | Activity [12]: Non-Toxic | Cmax [13]: 6870 ng/mL | Tmax [14]: 20 min | Activity [15]: Non-Toxic | Vd [16]: 0.191 L/kg | bioavailability [17]: 1.5% | Cmax [18]: 511 ng/mL | Activity [19]: Non-Toxic | Activity [20]: Non-Toxic | remaining at 60 min (in vitro [21]): 73.8% | Activity [22]: Non-Toxic | IC50 (Cytochrome P450 2C9): 41.6 µM | half-life [23]: 12.8 min | Papp A→B at 2 h, 20 µM (in vitro [24]): 0.0191 ×10⁻⁶ cm/s

CCC(CC)O[C@@H]1C=C(C(=O)O)C[C@H](NCc2c(C)cc(-c3cccs3)cc2C)[C@H]1NC(C)=O
CC50 at 48 h (in vitro [1]): > 250 µM | CC50 at 48 h (in vitro [2]): > 250 µM

CCC(CC)O[C@@H]1C=C(C(=O)O)C[C@H](NCc2ccc(-c3ccsc3)cc2C)[C@H]1NC(C)=O
CC50 at 48 h (in vitro [1]): > 250 µM | CC50 at 48 h (in vitro [2]): > 250 µM

CCC(CC)O[C@@H]1C=C(C(=O)O)C[C@H](NCc2c(C)cc(-c3ccsc3)cc2C)[C@H]1NC(C)=O
CC50 at 48 h (in vitro [1]): > 250 µM | CC50 at 48 h (in vitro [2]): > 250 µM

CCC(CC)O[C@@H]1C=C(C(=O)O)C[C@H](NCc2ccc(-c3ccsc3)cc2O)[C@H]1NC(C)=O
CLint scaled at 2 h (in vitro [3]): 17.2 mL/min/kg | half-life at 2 h (in vitro [5]): 44.5 min | CC50 at 48 h (in vitro [1]): > 250 µM | CC50 at 48 h (in vitro [2]): > 250 µM | remaining at 60 min (in vitro [21]): 59%

CCC(CC)O[C@@H]1C=C(C(=O)O)C[C@H](NCc2ccc(-c3ccsc3)cc2OC)[C@H]1NC(C)=O
IC50 (Cytochrome P450 2C19): 47.8 µM | CLint scaled at 2 h (in vitro [3]): < 8.6 mL/min/kg | half-life [4]: 50.2 min | half-life at 2 h (in vitro [5]): > 145 min | Activity [6]: Non-Toxic | Activity [7]: Non-Toxic | IC50 (Cytochrome P450 3A4): > 100 µM | Tmax [8]: 4.98 min | IC50 (Cytochrome P450 2D6): > 100 µM | Activity [9]: Non-Toxic | clearance [10]: 17.2 mL/min/kg | CC50 at 48 h (in vitro [1]): > 250 µM | Activity [11]: Non-Toxic | CC50 at 48 h (in vitro [2]): > 250 µM | IC50 (Cytochrome P450 1A2): 28.9 µM | Activity [12]: Non-Toxic | Cmax [13]: 7200 ng/mL | Tmax [14]: 30 min | Activity [15]: Non-Toxic | Vd [16]: 0.179 L/kg | bioavailability [17]: 1.58% | Cmax [18]: 491 ng/mL | Activity [19]: Non-Toxic | Activity [20]: Non-Toxic | remaining at 60 min (in vitro [21]): 79.3% | Activity [22]: Non-Toxic | IC50 (Cytochrome P450 2C9): 47.3 µM | half-life [23]: 12.8 min | Papp A→B at 2 h, 20 µM (in vitro [24]): 0.0262 ×10⁻⁶ cm/s

CCC(CC)O[C@@H]1C=C(C(=O)O)C[C@H](NCc2ccc(-c3ccsc3)cc2Cl)[C@H]1NC(C)=O
IC50 (Cytochrome P450 2C19): 36.6 µM | CLint scaled at 2 h (in vitro [3]): < 8.6 mL/min/kg | half-life at 2 h (in vitro [5]): > 145 min | IC50 (Cytochrome P450 3A4): 72.5 µM | IC50 (Cytochrome P450 2D6): > 100 µM | CC50 at 48 h (in vitro [1]): > 250 µM | CC50 at 48 h (in vitro [2]): > 250 µM | IC50 (Cytochrome P450 1A2): 14.3 µM | remaining at 60 min (in vitro [21]): 78.1% | IC50 (Cytochrome P450 2C9): 31.8 µM

CCC(CC)O[C@@H]1C=C(C(=O)O)C[C@H](NCc2ccc(-c3cccs3)cc2C)[C@H]1NC(C)=O
IC50 (Cytochrome P450 2C19): 38.9 µM | CLint scaled at 2 h (in vitro [3]): 10.2 mL/min/kg | half-life at 2 h (in vitro [5]): 123 min | IC50 (Cytochrome P450 3A4): > 100 µM | IC50 (Cytochrome P450 2D6): > 100 µM | CC50 at 48 h (in vitro [1]): > 250 µM | CC50 at 48 h (in vitro [2]): > 250 µM | IC50 (Cytochrome P450 1A2): 19.5 µM | remaining at 60 min (in vitro [21]): 71.7% | IC50 (Cytochrome P450 2C9): 43.6 µM

CCC(CC)O[C@@H]1C=C(C(=O)O)C[C@H](NCc2ccc(-c3cccs3)cc2Cl)[C@H]1NC(C)=O
IC50 (Cytochrome P450 2C19): 39.3 µM | CLint scaled at 2 h (in vitro [3]): < 8.6 mL/min/kg | half-life at 2 h (in vitro [5]): > 145 min | IC50 (Cytochrome P450 3A4): > 100 µM | IC50 (Cytochrome P450 2D6): > 100 µM | CC50 at 48 h (in vitro [1]): > 250 µM | CC50 at 48 h (in vitro [2]): > 250 µM | IC50 (Cytochrome P450 1A2): 12.7 µM | remaining at 60 min (in vitro [21]): 76.1% | IC50 (Cytochrome P450 2C9): 86.5 µM

O=C(O)Cc1ccccc1Nc1c(Cl)cccc1Cl [DICLOFENAC]
CLint scaled at 2 h (in vitro [3]): 225 mL/min/kg | half-life at 2 h (in vitro [5]): 5.5 min

CC(C)(C)NCC(O)COc1cccc2c1CC(O)C(O)C2 (stereo unspecified) [NADOLOL]
Papp A→B at 2 h, 20 µM (in vitro [24]): 0.0491 ×10⁻⁶ cm/s

CCC(CC)O[C@@H]1C=C(C(=O)O)C[C@H](N)[C@H]1NC(C)=O [OSELTAMIVIR CARBOXYLATE]
CLint scaled at 2 h (in vitro [3]): 28 mL/min/kg | half-life at 2 h (in vitro [5]): 72.4 min | CC50 at 48 h (in vitro [1]): > 250 µM | CC50 at 48 h (in vitro [2]): > 250 µM | remaining at 60 min (in vitro [21]): 40.6%

C[C@]12CC[C@H]3[C@@H](CCC4=CC(=O)CC[C@@]43C)[C@@H]1CC[C@@H]2O [TESTOSTERONE]
CLint scaled at 2 h (in vitro [3]): 89.7 mL/min/kg | remaining at 60 min (in vitro [21]): 5.1%
